Laboratory results reported in article PMC5395518, “Design, synthesis, and biological evaluation of the novel glycyrrhetinic acid-cinnamoyl hybrids as anti-tumor agents” (Chemistry Central Journal, 2016).

Key:
Hela cells [1] = assay: MTT cytotoxicity assay, Hela; assay type: cell-based, human
Excerpt: (§1) HepG2 (human hepatocellular carcinoma), Hela (human cervical cancer), HT-29 (human colon carcinoma), MDCK (Madin–Darby canine kidney), H9C2 (rat myocardial cells) and HY926 were purchased from the Chinese Academy of Medical Sciences and Peking Union Medical College. All of these cell lines were maintained in RPMI-1640 (DMEM) supplemented with 10% (v/v) fetal bovine serum (FBS) and 1% (v/v) penicillin/streptomycin (Thermo Technologies, New York, NY, USA) under a humidified atmosphere containing 5% CO2 at 37 °C. To provide stock solutions which were used to prepare various concentrations of treatment media, GA and hybrids were added a volume of DMSO.
(§2) The cytotoxicity of these compounds was evaluated on three human cancer cell lines (HepG2, HT-29, Hela) and three non-tumor cells lines (MDCK, HY926, H9C2) and MTT assay was performed to detect the cell proliferation. Simply, exponentially growing cells were cultured in 96-well plates (3 × 10^3 cells/well). And the plates were placed in a humidified atmosphere for 72 h at 37 °C with 5% CO2. After added MTT solution (5 mg/mL) 20 μL to each well, the plate was incubated for a further 4 h. Then the cell supernatant was removed and 150 μL DMSO was added. Finally, the absorbance was determined at wavelength of 490 nm with the ELISA. Wells without drugs were used to be blanks. The IC50 values were calculated using Logit-method. The following Eq. (1) was proposed to calculate the inhibitory rate of cell growth:1 %inhibition=1-Sample group OD/Control group OD×100%

HepG2 cells = assay: MTT cytotoxicity assay, HepG2; assay type: cell-based, human; settings: 72 h, mean ± SD (n = 3)
Excerpt: as §1, §2

HT-29 cells = assay: MTT cytotoxicity assay, HT-29; assay type: cell-based, human; settings: 72 h, mean ± SD (n = 3)
Excerpt: as §1, §2

MDCK cells = assay: MTT cytotoxicity assay, MDCK (non-tumor); assay type: cell-based, canine
Excerpt: as §1, §2

HY926 cells = assay: MTT cytotoxicity assay, HY926 (non-tumor); assay type: cell-based
Excerpt: as §1, §2

H9C2 cells = assay: MTT cytotoxicity assay, H9C2 (non-tumor); assay type: cell-based, rat
Excerpt: as §1, §2

Kunming mice = assay: Acute toxicity by gavage in Kunming mice; assay type: in vivo
Excerpt: Forty healthy Kunming mice (weight 18–22 g) of both sexes were purchased from Beijing Vital River Laboratory Animal Technology Company Limited (Beijing, China). The mice were divided into two groups matched the same weight and size, along with the standard in our previous studies. In briefly, 20 mice were selected for blank control group, and the other 20 mice were for the treated group. All experiments followed the guidelines of “Regulation for the Administration of Affairs Concerning Experimental Animals” (State Council of China, 1988). All animals were placed in cages, fed with standard rodent chow and water ad libitum under a 12-h light–dark cycle. Before the experiments, the mice were deprived of food for 12 h but provided water freely. Then the treated group of both sexes were administered a single dose of 8a (0.3 mL/10 g) via gavage twice a day, which was prepared in advance in bean oil solution with the maximum suspended dose (50 mg/mL). The total administration of 8a was 3 g/kg during 8 h. And the blank control group were given bean oil by oral administration only. The mice’s general behavior was continuously noted in the first hour, intermittently observed in the next 4 h, and thereafter over a period of 24 h. Observations of the signs for toxicity and deaths were last for 14 days. The mortality response and behavior of toxic effects of mice were recorded.

Hela cells [2] = assay: Annexin V-FITC/PI flow cytometric apoptosis assay; assay type: cell-based, human; settings: 72 h, control 7.5%
Protocol: Hela cells were seeded in 12-well plates (5 × 10^4 cells/well), which were placed in a humidified atmosphere for 24 h at 37 °C with 5% CO2. After treated with different concentrations of 8a (5, 10, 20 μM) for 72 h, all cells were collected respectively with the right amount of trypsin (without EDTA) digestion. After added 1 mL cold PBS, the cells were gently suspended and centrifuged at 1000 rpm for 5 min. The harvested cells were suspended in 200 μL binding buffer which contained 10 μL Annexin V-FITC and PI. After avoided light reaction for 15 min, the cells were analyzed with a flow cytometry (BD, USA).

caspase-3 = assay: Caspase-3 activity assay (Ac-DEVD-pNA cleavage) in Hela cells; assay type: cell-based, human; settings: 5, 10, 20 μM, 48 h
Protocol: Hela cells were seeded in dishes at a density of 5 × 10^5 cell per dish and the dishes were kept at 37 °C with 5% CO2 for 24 h. On the next day, various concentration of 8a (0, 5, 10, 20 μM) were added to the cells and cultured for 48 h. Pre-cooled PBS were added twice to wash the cells. After removal of the medium, ice-cold cell lysis buffer was added, and the cells were further incubated in an ice bath for 15 min, which contribute to the protein acquisition. The caspase-3 activity kit (Beyotime Institute of Biotechnology, Beijing, China) was used to determine the activity of caspase-3. A total of 50 μL cell lysates, 40 μL reaction buffer and 10 μL caspase-3 substrate (Ac-DEVDpNA) (2 mM) were added to 96-well plates. After 30 min of incubation, absorbance was measured at 405 nm, and samples were quantified with ELISA.

Hela cells [3] = assay: Giemsa staining on Hela cells; assay type: cell-based, human; settings: 5, 10, 20 μM, 72 h, with increase of concentration
Protocol: Hela cells were seeded in 12-well plates (5 × 10^3 cells/well), and then they were cultured for 24 h at 37 °C with 5% CO2. After that each group was added 8a, making the final concentration of 0, 5, 10, 20 μM respectively. After 72 h, the cell supernatant was removed and the cells were cleaned with PBS twice, then kept in PBS/ethanol (1:1) for 2 min and fixed with cold ethanol for 10 min. After discarding ethanol, the cells were stained with Giemsa (Giemsa, Molecular Probes/Invitrogen Life Technologies, Carlsbad, CA, USA) stained for 5 min and washed with water. In the end, the cells were observed and photographed under inverted phase-contrast microscope at a magnification of 200×.

Hela cells [4] = assay: H33342 staining on Hela cells; assay type: cell-based, human; settings: 5, 10, 20 μM, 72 h, with increase of concentration
Protocol: H33342 staining was used to confirm whether the characteristic nuclear changes were associated with 8a in this assay. Hela cells were cultured in 12-well plates (5 × 10^4 cells/well), which were placed in a humidified atmosphere for 24 h at 37 °C with 5% CO2. And then each group was added 8a, making the final concentration of 0, 5, 10, 20 μM respectively. After 72 h, cell culture medium was discarded and the cells were washed twice with PBS. H33342 staining was then performed for 2 min and washed with water. In the end, the cells were observed and photographed under inverted phase-contrast microscope at a magnification of 200×.

[5] = MTT, 72 h, mean ± SD (n = 3), non-tumor cells

COc1ccc(/C=C/C(=O)OC2CCC3(C)C(CCC4(C)C3C(=O)C=C3C5CC(C)(C(=O)O)CCC5(C)CCC34C)C2(C)C)c(OC)c1OC (stereo not drawn) [Compound 8a, (2,3,4-Trimethoxy) cinnamoyl-3β-hydroxy-11-oxoolean-12-en-30-oic acid]
inhibition rate against Hela (Hela cells [1]; 12.5 μM): 59.20%
IC50 (Hela cells [1]; MTT, 72 h, mean ± SD (n = 3)): 8.54 ± 1.44 µM
IC50 (HepG2 cells): 21.5 ± 1.5 µM
IC50 (HT-29 cells): 15 ± 1.26 µM
inhibition rate against MDCK (MDCK cells; 12.5 μM): 38.56%
IC50 (MDCK cells; [5]): 31.8 ± 2.79 µM
inhibition rate against HY926 (HY926 cells; 12.5 μM): 20.20%
IC50 (HY926 cells; [5]): 27.7 ± 1.39 µM
inhibition rate against H9C2 (H9C2 cells; 12.5 μM): 3.56%
IC50 (H9C2 cells; [5]): > 50 µM
signs of toxicity or deaths (Kunming mice; maximum tolerated dose 3 g/kg oral (gavage), 2 weeks observation, mice): no signs of toxicity or deaths were observed
LD50 (Kunming mice; oral administration in mice): exceeded 3.0 g/kg
apoptosis ratio (Hela cells [2]; 5 μM): 15.7%
apoptosis ratio (Hela cells [2]; 10 μM): 27.7%
apoptosis ratio (Hela cells [2]; 20 μM): 60%
caspase-3 activities in Hela cells (caspase-3): enhanced in a concentration-dependent manner
morphological changes by Giemsa staining (Hela cells [3]): cell loss, nuclei lysis, chromatin condensation and cytoplasmic shrinkage were aggravated
nuclear changes by H33342 staining (Hela cells [4]): the nuclear fragmentation, the cytoplasmic shrinkage, and the shape of apoptotic cells became irregular
